In patent US20250099431A1, “GLP-1R MODULATING COMPOUNDS” (priority 2020, published 2025):

Legend:
[1] = molecular target: GLP-1R (Homo sapiens (Human), UniProt P43220); assay: GLP-1R activation: cAMP increase in CHO cells stably expressing GLP-1R; assay type: cell-based; details: cAMP increase, 10 point dose response, 30 minutes incubation at 37° C., read-out: EC50
Method in brief: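 CHO cells stably expressing GLP-1R were incubated 1 h at 37 °C in medium with 1% BSA, then exposed to compound in a 10-point dose response for 30 min at 37 °C. cAMP rise was detected by HTRF (Gs Dynamic kit). EC50 came from a sigmoidal fit of response against log agonist concentration.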

[2] = Microsomal stability (liver microsomal assay, mixed cofactors); predicted hepatic clearance; assay type: in vitro ADME; details: liver microsomes 1.0 mg protein/mL (+UDPGA +NADPH), 1 μM analyte, 37° C.; scaled with human liver weight and hepatic blood flow 1.3 L/hr/kg
Method in brief: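 Compound at 1 μM with human or rat pooled liver microsomes, alamethicin-treated, pH 7.4 phosphate, NADPH-regenerating plus UDPGA cofactors, 37° C, sampled 0–70 min. Parent/internal standard ratio by RapidFire QToF MS; half-life from initial log-linear decay, scaled to intrinsic and predicted hepatic clearance and hepatic extraction.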

Chain of GLP-1R (P43220 24-463): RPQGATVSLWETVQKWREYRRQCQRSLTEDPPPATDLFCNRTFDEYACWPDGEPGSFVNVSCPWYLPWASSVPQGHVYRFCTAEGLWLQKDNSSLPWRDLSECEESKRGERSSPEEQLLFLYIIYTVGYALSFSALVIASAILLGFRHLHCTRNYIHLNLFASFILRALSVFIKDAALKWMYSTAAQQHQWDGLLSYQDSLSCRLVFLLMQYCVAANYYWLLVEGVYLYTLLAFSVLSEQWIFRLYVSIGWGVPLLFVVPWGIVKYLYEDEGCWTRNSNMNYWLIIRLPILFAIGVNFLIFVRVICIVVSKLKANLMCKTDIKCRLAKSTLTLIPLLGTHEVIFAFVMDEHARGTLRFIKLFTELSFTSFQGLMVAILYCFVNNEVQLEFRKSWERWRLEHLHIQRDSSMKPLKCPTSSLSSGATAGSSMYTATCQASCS

| Structure (SMILES) | EC50 [1] | Predicted Hepatic Clearance (Pred. Cl.) [2] |
| --- | --- | --- |
| CCC1(c2ccc(Cl)cc2F)Oc2cccc(-c3cc(F)c(Cc4nc5ccc(C(=O)O)cc5n4CCOC)c(F)c3)c2O1 (centres unmarked) [Example 53, 2-(4-(2-(4-chloro-2-fluorophenyl)-2-ethylbenzo[d][1,3]dioxol-4-yl)-2,6-difluorobenzyl)-1-(2-methoxyethyl)-1H-benzo[d]imidazole-6-carboxylic acid] | 1290 nM | 13 mL/min/kg |
| COCCn1c(Cc2c(F)cc(-c3cccc4c3OC3(CCCCc5cc(Cl)ccc53)O4)cc2F)nc2ccc(C(=O)O)cc21 (centres unmarked) [Example 57, 2-(4-(2′-chloro-6′,7′,8′,9′-tetrahydrospiro[benzo [d][1,3]dioxole-2,5′-benzo[7]annulen]-4-yl)-2,6-difluorobenzyl)-1-(2-methoxyethyl)-1H-benzo[d]imidazole-6-carboxylic acid] | 347 nM | 9.17 mL/min/kg |
| CC1(c2ccc(Cl)cc2F)Oc2cccc(-c3ccc(Cc4nc5ccc(C(=O)O)cc5n4CC4(n5ccnn5)CC4)c(F)c3)c2O1 (centres unmarked) [Example 109, 1-((1-(1H-1,2,3-triazol-1-yl)cyclopropyl)methyl)-2-(4-(2-(4-chloro-2-fluorophenyl)-2-methylbenzo[d][1, 3]dioxol-4-yl)-2-fluorobenzyl)-1H-benzo[d]imidazole-6-carboxylic acid] | 9.1 nM | 2.5 mL/min/kg |
| COCCn1c(Cc2ccc(-c3cccc4c3OC(C)(c3ccc(Cl)cc3F)O4)n(C)c2=O)nc2ccc(C(=O)O)cc21 (centres unmarked) [Example 87, 2-((6-(2-(4-chloro-2-fluorophenyl)-2-methylbenzo[d][1, 3]dioxol-4-yl)-1-methyl-2-oxo-1,2-dihydropyridin-3-yl)methyl)-1-(2-methoxyethyl)-1H-benzo[d]imidazole-6-carboxylic acid] | 1150 nM | 9 mL/min/kg |
| CC1(c2ccc(Cl)cc2F)Oc2cccc(-c3ccc(Cc4nc5ccc(C(=O)O)cc5n4C[C@@H]4CCO4)cc3F)c2O1 (stereo partly drawn) [Example 15, 2-(4-(2-(4-chloro-2-fluorophenyl)-2-methylbenzo[d][1, 3]dioxol-4-yl)-3-fluorobenzyl)-1-(((S)-oxetan-2-yl)methyl)-1H-benzo[d]imidazole-6-carboxylic acid] | 0.015 nM | 4.5 mL/min/kg |
| COCCn1c(Cc2c(F)cc(-c3cccc4c3O[C@](C)(c3ccc(Cl)cc3F)O4)cc2F)nc2ccc(C(=O)O)cc21 [Example 103, 2-(4-(2-(4-chloro-2-fluorophenyl)-2-methylbenzo[d][1, 3]dioxol-4-yl)-2,6-difluorobenzyl)-1-(2-methoxyethyl)-1H-benzo[d]imidazole-6-carboxylic acid] | 8.2 nM | 4.17 mL/min/kg |
| COCCn1c(Cc2cc(F)c(-c3cccc4c3OC(C)(c3ccc(C#N)cc3F)O4)cc2F)nc2c(F)cc(C(=O)O)cc21 (centres unmarked) [Example 62, 2-(4-(2-(4-cyano-2-fluorophenyl)-2-methylbenzo[d][1, 3]dioxol-4-yl)-2,5-difluorobenzyl)-4-fluoro-1-(2-methoxyethyl)-1H-benzo[d]imidazole-6-carboxylic acid] | 2.5 nM | 8.83 mL/min/kg |
| COCCn1c(Cc2c(F)cc(-c3cccc4c3OC(C)(c3ccc(C#N)cc3F)O4)cc2F)nc2ccc(C(=O)O)cc21 (single isomer, unassigned) [Example 99, 2-(4-(2-(4-cyano-2-fluorophenyl)-2-methylbenzo[d][1, 3]dioxol-4-yl)-2,6-difluorobenzyl)-1-(2-methoxyethyl)-1H-benzo[d]imidazole-6-carboxylic acid] | 2.4 nM | 11.3 mL/min/kg |
| CC1(c2ccc(Cl)cc2F)Oc2cccc(-c3cc(F)c(Cc4nc5ccc(C(=O)O)cc5n4C[C@@H]4CCO4)cc3F)c2O1 (stereo partly drawn) [Example 28, 2-(4-(2-(4-chloro-2-fluorophenyl)-2-methylbenzo[d][1, 3]dioxol-4-yl)-2,5-difluorobenzyl)-1-(((S)-oxetan-2-yl)methyl)-1H-benzo[d]imidazole-6-carboxylic acid] | 0.034 nM | 3.83 mL/min/kg |
| CC1(c2ccc(Cl)cn2)Oc2cccc(-c3cc(F)c(Cc4nc5ccc(C(=O)O)cc5n4CC4(CF)CC4)c(F)c3)c2O1 (centres unmarked) [Example 12, 2-(4-(2-(5-chloropyridin-2-yl)-2-methylbenzo[d][1, 3]dioxol-4-yl)-2,6-difluorobenzyl)-1-((1-(fluoromethyl)cyclo-propyl)methyl)-1H-benzo[d]imidazole-6-carboxylic acid] | 2.4 nM | 4 mL/min/kg |
| COCCn1c(Cc2c(F)cc(-c3cccc4c3OC3(CCCc5cc(Cl)ccc53)O4)cc2F)nc2ccc(C(=O)O)cc21 (centres unmarked) [Example 56, 2-(4-(6′-chloro-3′,4′-dihydro-2′H-spiro[benzo[d][1,3]dioxole-2,1′-naphthalen]-4-yl)-2,6-difluorobenzyl)-1-(2-methoxyethyl)-1H-benzo[d]imidazole-6-carboxylic acid] | 3750 nM | 5.83 mL/min/kg |
| COCCn1c(Cc2ccc(-c3cccc4c3OC(C)(c3ccc(Cl)cc3F)O4)nc2OC)nc2ccc(C(=O)O)cc21 (centres unmarked) [Example 85, 2-((6-(2-(4-chloro-2-fluorophenyl)-2-methylbenzo[d][1, 3]dioxol-4-yl)-2-methoxypyridin-3-yl)methyl)-1-(2-methoxyethyl)-1H-benzo[d]imidazole-6-carboxylic acid] | 168 nM | 3 mL/min/kg |
| COCCn1c(Cc2c(F)cc(-c3cccc4c3OC3(CCCOc5cc(Cl)ccc53)O4)cc2F)nc2ccc(C(=O)O)cc21 (centres unmarked) [Example 55, 2-(4-(8-chloro-3,4-dihydro-2H-spiro[benzo[b]oxepine-5,2′-benzo[d][1,3]dioxol]-4′-yl)-2,6-difluorobenzyl)-1-(2-methoxyethyl)-1H-benzo[d]imidazole-6-carboxylic acid] | 1270 nM | 8.3 mL/min/kg |
| COCCn1c(Cc2c(F)cc(-c3cccc4c3OC(C)(c3ccc(C#N)cc3F)O4)c(F)c2F)nc2ccc(C(=O)O)cc21 (single isomer, unassigned) [Example 97, 2-(4-(2-(4-cyano-2-fluorophenyl)-2-methylbenzo[d][1, 3]dioxol-4-yl)-2,3,6-trifluorobenzyl)-1-(2-methoxyethyl)-1H-benzo[d]imidazole-6-carboxylic acid] | 1.9 nM | 15.2 mL/min/kg |
| CC1(c2ccc(Cl)cn2)Oc2cccc(-c3ccn(Cc4nc5ccc(C(=O)O)cc5n4C[C@@H]4CCO4)c(=O)c3)c2O1 (stereo partly drawn) [Example 26, 2-((4-(2-(5-chloropyridin-2-yl)-2-methylbenzo[d][1, 3]dioxol-4-yl)-2-oxopyridin-1(2H)-yl)methyl)-1-(((S)-oxetan-2-yl)methyl)-1H-benzo[d]imidazole-6-carboxylic acid] | 37 nM | <1.83 mL/min/kg |
| COCCn1c(Cc2cc(F)c(-c3cccc4c3OC(C)(c3ccc(Cl)cc3F)O4)cc2F)nc2ccc(-c3nn[nH]n3)cc21 (centres unmarked) [Example 84, 2-(4-(2-(4-chloro-2-fluorophenyl)-2-methylbenzo[d][1, 3]dioxol-4-yl)-2,5-difluorobenzyl)-1-(2-methoxyethyl)-6-(2H-tetrazol-5-yl)-1H-benzo[d]imidazole] | 49 nM | 2.83 mL/min/kg |
